The values below come from PMC9481570, “A small molecule antagonist of SMN disrupts the interaction between SMN and RNAP II” (Nature Communications, 2022).

SMILES strings stand for the structures. “And” between values parts separate entries of the source, which are not always exact repeats. Identical values can stand only once.

Common to all, as to assay: Affinity-purification and mass spectrometry (AP-MS) chemical proteomics, all proteins;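 on Difference: 200 µM free competitor with 20 µM biotin probe overnight in lysate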
What all share (type): binding

The target in experiment [1] is T1, proteins displaced from immobilized biotin-Cmpd 1 pulldowns (U2OS cell lysate) (Homo sapiens, UniProt P52948).
T1 construct: endogenous in cells; host or cells: U2OS
To be noted: GN=NUP98 (P52948).

Experiment [2] has as its target T2, proteins displaced from immobilized biotin-Cmpd 1 pulldowns (U2OS cell lysate) (Homo sapiens, UniProt Q6ZVX7).
T2 construct: endogenous in cells; host or cells: U2OS
The note with it: GN=NCCRP1 (Q6ZVX7).

For experiment [3], the target named is T3, proteins displaced from immobilized biotin-Cmpd 1 pulldowns (U2OS cell lysate) (Homo sapiens, UniProt Q9BSJ8).
T3 construct: endogenous in cells; host or cells: U2OS
The note with it: GN=ESYT1 (Q9BSJ8).

In experiment [4] the target is T4, proteins displaced from immobilized biotin-Cmpd 1 pulldowns (U2OS cell lysate) (Homo sapiens, UniProt O75223).
T4 construct: endogenous in cells; host or cells: U2OS
To be noted: GN=GGCT (O75223).

In experiment [5] the target is T5, proteins displaced from immobilized biotin-Cmpd 1 pulldowns (U2OS cell lysate) (Homo sapiens, UniProt Q9UNF1).
T5 construct: endogenous in cells; host or cells: U2OS
To be noted: GN=MAGED2 (Q9UNF1).

Experiment [6] deals with T6, proteins displaced from immobilized biotin-Cmpd 1 pulldowns (U2OS cell lysate) (Homo sapiens, UniProt Q9UN81).
T6 construct: endogenous in cells; host or cells: U2OS
To be noted: GN=L1RE1 (Q9UN81).

Experiment [7] concerns the target T7, proteins displaced from immobilized biotin-Cmpd 1 pulldowns (U2OS cell lysate) (Homo sapiens, UniProt P01876).
T7 construct: endogenous in cells; host or cells: U2OS
The note with it: GN=IGHA1 (P01876).

Experiment [8] concerns the target T8, proteins displaced from immobilized biotin-Cmpd 1 pulldowns (U2OS cell lysate) (Homo sapiens, UniProt Q9NR12).
T8 construct: endogenous in cells; host or cells: U2OS
The note with it: GN=PDLIM7 (Q9NR12).

The target in experiment [9] is T9, proteins displaced from immobilized biotin-Cmpd 1 pulldowns (U2OS cell lysate) (Homo sapiens, UniProt P30048).
T9 construct: endogenous in cells; host or cells: U2OS
To be noted: GN=PRDX3 (P30048).

Experiment [10] addresses T10, proteins displaced from immobilized biotin-Cmpd 1 pulldowns (U2OS cell lysate) (Homo sapiens, UniProt P22735).
T10 construct: endogenous in cells; host or cells: U2OS
The note with it: GN=TGM1 (P22735).

T10 sequence (P22735 whole entry): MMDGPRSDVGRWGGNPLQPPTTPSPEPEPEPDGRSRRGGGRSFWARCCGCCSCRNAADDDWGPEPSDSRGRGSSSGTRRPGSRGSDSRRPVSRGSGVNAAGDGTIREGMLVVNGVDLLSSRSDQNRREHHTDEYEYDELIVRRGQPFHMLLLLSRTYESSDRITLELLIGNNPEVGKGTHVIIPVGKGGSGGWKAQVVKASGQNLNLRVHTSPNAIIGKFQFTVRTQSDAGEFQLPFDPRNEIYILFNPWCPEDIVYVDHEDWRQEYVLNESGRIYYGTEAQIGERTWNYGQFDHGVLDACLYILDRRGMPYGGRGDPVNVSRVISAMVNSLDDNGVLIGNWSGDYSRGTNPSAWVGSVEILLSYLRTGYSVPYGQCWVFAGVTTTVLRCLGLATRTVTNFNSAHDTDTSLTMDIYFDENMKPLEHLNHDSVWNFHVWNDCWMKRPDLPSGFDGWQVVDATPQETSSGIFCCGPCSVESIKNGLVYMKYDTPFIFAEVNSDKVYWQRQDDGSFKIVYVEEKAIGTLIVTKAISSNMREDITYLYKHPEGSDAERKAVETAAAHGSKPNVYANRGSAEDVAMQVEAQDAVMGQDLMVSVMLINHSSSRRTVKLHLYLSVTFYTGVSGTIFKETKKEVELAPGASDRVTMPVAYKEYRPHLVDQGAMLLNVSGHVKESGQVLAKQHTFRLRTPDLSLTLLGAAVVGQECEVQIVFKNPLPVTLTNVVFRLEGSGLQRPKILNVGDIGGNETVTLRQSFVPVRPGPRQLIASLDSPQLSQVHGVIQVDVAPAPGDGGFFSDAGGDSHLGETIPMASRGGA
T8 sequence (Q9NR12 whole entry): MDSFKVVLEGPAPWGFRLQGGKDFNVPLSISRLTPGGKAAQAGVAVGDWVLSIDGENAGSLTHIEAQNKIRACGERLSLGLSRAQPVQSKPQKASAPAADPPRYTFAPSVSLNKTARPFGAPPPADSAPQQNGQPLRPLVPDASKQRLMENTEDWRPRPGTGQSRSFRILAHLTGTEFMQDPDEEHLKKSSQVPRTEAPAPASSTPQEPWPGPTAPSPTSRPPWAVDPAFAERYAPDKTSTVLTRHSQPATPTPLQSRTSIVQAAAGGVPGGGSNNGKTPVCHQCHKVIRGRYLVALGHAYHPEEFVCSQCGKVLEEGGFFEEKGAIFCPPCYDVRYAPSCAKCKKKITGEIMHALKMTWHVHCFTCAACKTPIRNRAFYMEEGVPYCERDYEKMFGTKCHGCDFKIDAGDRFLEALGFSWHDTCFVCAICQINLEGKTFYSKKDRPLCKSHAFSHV
T7 sequence (P01876 whole entry): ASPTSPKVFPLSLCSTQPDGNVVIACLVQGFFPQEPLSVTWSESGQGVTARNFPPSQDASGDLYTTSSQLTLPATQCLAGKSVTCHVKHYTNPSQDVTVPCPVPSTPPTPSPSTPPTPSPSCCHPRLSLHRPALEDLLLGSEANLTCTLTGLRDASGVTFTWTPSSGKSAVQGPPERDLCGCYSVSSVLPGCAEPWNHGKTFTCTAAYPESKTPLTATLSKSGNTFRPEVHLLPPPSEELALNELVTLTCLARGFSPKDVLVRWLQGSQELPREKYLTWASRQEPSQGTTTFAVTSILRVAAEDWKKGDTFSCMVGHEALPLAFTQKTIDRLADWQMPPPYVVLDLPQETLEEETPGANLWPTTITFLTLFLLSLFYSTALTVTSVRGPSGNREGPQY
T4 sequence (O75223 whole entry): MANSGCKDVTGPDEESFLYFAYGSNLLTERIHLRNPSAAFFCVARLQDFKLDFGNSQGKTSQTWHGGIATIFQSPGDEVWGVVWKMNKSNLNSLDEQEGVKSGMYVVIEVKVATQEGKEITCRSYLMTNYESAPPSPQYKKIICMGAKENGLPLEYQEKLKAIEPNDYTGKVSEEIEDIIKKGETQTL
T3 sequence (Q9BSJ8 whole entry): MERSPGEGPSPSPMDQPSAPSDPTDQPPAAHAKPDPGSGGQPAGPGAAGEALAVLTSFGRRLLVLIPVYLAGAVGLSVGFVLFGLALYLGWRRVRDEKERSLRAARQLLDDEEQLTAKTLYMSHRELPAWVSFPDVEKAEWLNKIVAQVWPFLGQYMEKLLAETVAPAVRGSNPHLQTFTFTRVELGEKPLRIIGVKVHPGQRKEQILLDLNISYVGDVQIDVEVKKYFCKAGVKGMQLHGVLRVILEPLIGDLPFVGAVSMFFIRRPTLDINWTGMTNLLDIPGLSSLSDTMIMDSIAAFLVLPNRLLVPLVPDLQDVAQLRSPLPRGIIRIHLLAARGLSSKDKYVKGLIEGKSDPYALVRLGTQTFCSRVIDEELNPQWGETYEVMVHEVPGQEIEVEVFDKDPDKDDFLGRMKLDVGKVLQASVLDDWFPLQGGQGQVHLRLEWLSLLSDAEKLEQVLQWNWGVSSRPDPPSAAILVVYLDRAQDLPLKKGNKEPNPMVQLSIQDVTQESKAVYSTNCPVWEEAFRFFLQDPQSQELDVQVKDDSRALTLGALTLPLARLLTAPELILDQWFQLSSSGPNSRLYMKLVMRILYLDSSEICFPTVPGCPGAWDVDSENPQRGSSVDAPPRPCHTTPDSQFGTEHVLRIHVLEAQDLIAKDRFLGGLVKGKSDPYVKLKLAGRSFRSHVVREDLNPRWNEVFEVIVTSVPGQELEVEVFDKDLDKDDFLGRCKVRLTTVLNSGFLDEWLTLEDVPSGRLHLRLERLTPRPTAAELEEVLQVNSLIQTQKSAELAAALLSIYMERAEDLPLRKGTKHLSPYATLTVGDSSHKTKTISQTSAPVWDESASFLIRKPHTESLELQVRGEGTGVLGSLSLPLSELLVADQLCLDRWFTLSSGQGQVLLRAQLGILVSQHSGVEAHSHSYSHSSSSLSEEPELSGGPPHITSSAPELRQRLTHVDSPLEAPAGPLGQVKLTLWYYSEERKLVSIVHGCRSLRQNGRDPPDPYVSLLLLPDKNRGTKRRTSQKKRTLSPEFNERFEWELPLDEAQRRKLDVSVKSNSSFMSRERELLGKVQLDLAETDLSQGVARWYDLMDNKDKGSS
T6 sequence (Q9UN81 whole entry): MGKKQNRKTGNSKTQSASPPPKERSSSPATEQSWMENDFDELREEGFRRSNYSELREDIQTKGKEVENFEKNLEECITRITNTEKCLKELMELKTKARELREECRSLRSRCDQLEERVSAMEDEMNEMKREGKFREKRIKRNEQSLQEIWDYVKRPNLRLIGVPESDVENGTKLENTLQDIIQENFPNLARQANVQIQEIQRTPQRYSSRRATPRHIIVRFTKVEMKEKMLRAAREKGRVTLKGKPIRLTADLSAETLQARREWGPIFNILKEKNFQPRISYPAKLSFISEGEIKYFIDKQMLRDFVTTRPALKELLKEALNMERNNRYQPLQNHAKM
T5 sequence (Q9UNF1 whole entry): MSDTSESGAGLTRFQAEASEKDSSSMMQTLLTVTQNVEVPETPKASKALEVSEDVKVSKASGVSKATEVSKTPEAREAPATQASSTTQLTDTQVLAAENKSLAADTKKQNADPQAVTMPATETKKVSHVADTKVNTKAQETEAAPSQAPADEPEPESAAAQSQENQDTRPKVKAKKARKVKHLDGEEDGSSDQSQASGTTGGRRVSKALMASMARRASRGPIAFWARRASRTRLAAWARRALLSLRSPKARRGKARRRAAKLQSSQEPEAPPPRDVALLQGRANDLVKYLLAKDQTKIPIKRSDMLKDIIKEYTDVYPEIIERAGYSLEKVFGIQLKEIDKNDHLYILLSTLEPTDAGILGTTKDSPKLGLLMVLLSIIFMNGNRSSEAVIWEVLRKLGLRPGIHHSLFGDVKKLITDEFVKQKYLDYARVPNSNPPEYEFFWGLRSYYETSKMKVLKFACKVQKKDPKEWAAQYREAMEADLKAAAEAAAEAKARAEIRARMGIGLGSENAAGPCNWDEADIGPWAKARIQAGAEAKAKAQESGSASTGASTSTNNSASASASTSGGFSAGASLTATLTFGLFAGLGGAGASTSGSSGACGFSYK
T9 sequence (P30048 62-256): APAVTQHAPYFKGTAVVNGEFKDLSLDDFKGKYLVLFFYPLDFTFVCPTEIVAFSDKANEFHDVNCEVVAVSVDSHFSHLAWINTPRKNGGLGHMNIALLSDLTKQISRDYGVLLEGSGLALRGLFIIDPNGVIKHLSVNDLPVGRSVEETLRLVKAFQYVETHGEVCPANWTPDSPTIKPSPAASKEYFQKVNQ
T2 sequence (Q6ZVX7 whole entry): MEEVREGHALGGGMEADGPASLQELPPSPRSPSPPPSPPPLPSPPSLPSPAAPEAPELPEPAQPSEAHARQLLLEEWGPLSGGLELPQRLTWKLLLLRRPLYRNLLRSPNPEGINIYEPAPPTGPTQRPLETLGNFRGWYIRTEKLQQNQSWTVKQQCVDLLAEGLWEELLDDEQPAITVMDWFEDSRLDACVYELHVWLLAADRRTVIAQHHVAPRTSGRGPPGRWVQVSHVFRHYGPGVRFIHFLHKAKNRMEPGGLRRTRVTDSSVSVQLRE

Regarding `Cn1c2c(c(=N)c3c1CCC3)CCC2` [Compound 1, 4-methyl-2,3,4,5,6,7-hexahydrodicyclopenta[b,e]pyridin-8(1H)-imine], the Difference in experiment [1] (Cmpd minus DMSO, -LOG(P-value) 0.703266) is 1.019; in experiment [2] (Cmpd minus DMSO, -LOG(P-value) 1.30206) it was -3.138; in experiment [3] (Cmpd minus DMSO, -LOG(P-value) 2.56654) it was 4.81; in [4] (Cmpd minus DMSO, -LOG(P-value) 0.708043) it was -1.888; in experiment [5] (Cmpd minus DMSO, -LOG(P-value) 0.822167), 0.7403; in [6] (Cmpd minus DMSO, -LOG(P-value) 0.981964), 1.653. The Difference in experiment [7] (Cmpd minus DMSO, -LOG(P-value) 0.808053) is -3.043; in experiment [8] (Cmpd minus DMSO, -LOG(P-value) 0.715156), 2.317; in experiment [9] (Cmpd minus DMSO, -LOG(P-value) 1.19354), -0.7441; in experiment [10] (Cmpd minus DMSO, -LOG(P-value) 1.15166), -2.41. The “iBAQ Cmpd” value in experiment [1] (replicates 1-3) was 16.2576 and 15.2783 and 15.0872; in experiment [2] (replicates 1-3), 15.2988 and 15.7784 and 15.638; in experiment [3] (replicates 1-3), 19.5229 and 18.9864 and 18.8876; in experiment [4] (replicates 1-3) it was 19.1406 and 20.1765 and 18.5823; in experiment [5] (replicates 1-3) it was 20.5058 and 20.3034 and 20.4789; in experiment [6] (replicates 1-3), 17.9091 and 17.4238 and 17.5156. Also, the “iBAQ Cmpd” value is 18.0352 and 17.6842 and 20.2605 in [7] (replicates 1-3); 18.0201 and 21.1113 and 16.886 in [8] (replicates 1-3); 16.0313 and 15.2476 and 15.6479 in [9] (replicates 1-3); 15.9988 and 17.3288 and 14.7232 in [10] (replicates 1-3).
